Assays:
[1] = Physical stability upon exposure to accelerated aging conditions (AAC, 40° C./75% RH), re-analysis by HT-XRPD; assay type: physicochemical; details: for Physical stability upon exposure to AAC / Stable during AAC: 40° C./75% RH, 2 days; for Physical stability upon exposure to AAC: HT-XRPD before and after; for Stable during AAC: salt screen solids; for Liquid phase AAC (XRPD form after accelerated aging): solids from evaporated mother liquors of the salt screen; for Liquid phase AAC (XRPD form after accelerated aging) / Solid phase AAC (XRPD form after accelerated aging): 40° C./75% RH for 2 days, HT-XRPD; for Solid phase AAC (XRPD form after accelerated aging): precipitated solids of the salt screen, dried under vacuum at 50° C.
[2] = Solubility of salts in water and in 0.2 M phosphate buffer pH 6 at 37° C. after 4 hours (HPLC-DAD); assay type: physicochemical; details: 4 hours
Method: Two sets of solubility experiments were performed. […] In the second set of solubility experiments about 5 mg of the salt was weighed in a standard 1.8 mL HPLC vial. Subsequently, aliquots of 200 μL of aqueous medium were added up to a maximum of 1 mL, while making observations regarding the dissolution behavior of the salts. The vials were left to equilibrate at 37° C. with continuous stirring (see Table 25 for details). After 4 hours the solids were separated from the liquid by centrifugation and the liquid phase was further filtrated through a […] PTFE filter to remove any particulate matter. The concentration of solute was determined by HPLC-DAD analysis. A calibration curve was made from two independent stock solutions of voruciclib prepared in acetonitrile/water. The pH was recorded at the end of the equilibration time.

CN1CCC(c2c(O)cc(O)c3c(=O)cc(-c4ccc(C(F)(F)F)cc4Cl)oc23)C1CO.O=C(O)c1ccccc1 (centres unmarked) [Ben1]
Physical stability upon exposure to AAC [1]: physically unstable during exposure to AAC for two days and converted to Ben3 | Stable during AAC [1]: No => Ben3 | Liquid phase AAC (XRPD form after accelerated aging) [1]: Ben3

CN1CC[C@@H](c2c(O)cc(O)c3c(=O)cc(-c4ccc(C(F)(F)F)cc4Cl)oc23)[C@@H]1CO.O=S(=O)(O)c1ccccc1 [Bes1]
Physical stability upon exposure to AAC [1]: physically unstable during exposure to AAC and became less crystalline | Stable during AAC [1]: No => Am or

CN1CCC(c2c(O)cc(O)c3c(=O)cc(-c4ccc(C(F)(F)F)cc4Cl)oc23)C1CO.O=C(O)C=CC(=O)O (centres unmarked) [Fum1]
Solid phase AAC (XRPD form after accelerated aging) [1]: Fum1 | Stable during AAC [1]: Yes

N[C@@H](CCC(=O)O)C(=O)O [Glm0]
Solid phase AAC (XRPD form after accelerated aging) [1]: Glm0

Br.CN1CCC(c2c(O)cc(O)c3c(=O)cc(-c4ccc(C(F)(F)F)cc4Cl)oc23)C1CO (centres unmarked) [HBr1]
Physical stability upon exposure to AAC [1]: physically unstable during exposure to accelerated aging conditions and converted to HBr2 | Stable during AAC [1]: No => HBr2 | Liquid phase AAC (XRPD form after accelerated aging) [1]: HBr2

CN1CCC(c2c(O)cc(O)c3c(=O)cc(-c4ccc(C(F)(F)F)cc4Cl)oc23)C1CO.CN1CCC(c2c(O)cc(O)c3c(=O)cc(-c4ccc(C(F)(F)F)cc4Cl)oc23)C1CO.O=S(=O)(O)c1cccc2c(S(=O)(=O)O)cccc12 (centres unmarked) [Hemi-napadisylate]
Solubility pH 6 ([2]; 0.2 M phosphate buffer pH 6, 37° C.): 0.02 mg/mL | Solubility water ([2]; water, 37° C.): 20 µg/mL

CN1CCC(c2c(O)cc(O)c3c(=O)cc(-c4ccc(C(F)(F)F)cc4Cl)oc23)C1CO.O=C(O)CC(O)C(=O)O (centres unmarked) [Mal1]
Stable during AAC [1]: Yes

CN1CC[C@@H](c2c(O)cc(O)c3c(=O)cc(-c4ccc(C(F)(F)F)cc4Cl)oc23)[C@@H]1CO.O=S(=O)(O)O [Sul1]
Solid phase AAC (XRPD form after accelerated aging) [1]: Sul1 | Stable during AAC [1]: Yes | Liquid phase AAC (XRPD form after accelerated aging) [1]: Sul1

CN1CCC(c2c(O)cc(O)c3c(=O)cc(-c4ccc(C(F)(F)F)cc4Cl)oc23)C1CO.CN1CCC(c2c(O)cc(O)c3c(=O)cc(-c4ccc(C(F)(F)F)cc4Cl)oc23)C1CO.O=S(=O)(O)O (centres unmarked) [Sul2]
Solid phase AAC (XRPD form after accelerated aging) [1]: Sul2 | Stable during AAC [1]: Yes

CN1CCC(c2c(O)cc(O)c3c(=O)cc(-c4ccc(C(F)(F)F)cc4Cl)oc23)C1CO.O=S(=O)(O)O (centres unmarked) [Sul4]
Stable during AAC [1]: Yes

CN1CC[C@@H](c2c(O)cc(O)c3c(=O)cc(-c4ccc(C(F)(F)F)cc4Cl)oc23)[C@@H]1CO.O=C(O)c1ccc2ccccc2c1O [Xin1]
Physical stability upon exposure to AAC [1]: physically stable during exposure to AAC | Stable during AAC [1]: Yes | Liquid phase AAC (XRPD form after accelerated aging) [1]: Xin1
